The record followed here is ChEMBL document CHEMBL1152156, “A bulge binding agent with novel wedge-shape topology for stimulation of DNA triplet repeat strand slippage synthesis” (Bioorg Med Chem Lett, 2008).

pKd, pKi: −log10 of the molar value. Activity calls are given as the source filed them. The rule behind the calls is not given here.

The nature of test [1]: Stimulation of DNA triplet repeat slippage synthesis using p33-labeled (ATT)3 and unlabeled (AAT)5 template assessed as number of base pairs at 400 uM.
Test [2] in a line: Binding affinity to double strand DNA by surface plasmon resonance based assay. (In SPR one partner is held on a chip, and binding of the other changes the refractive index at the surface.)
The nature of test [3]: Stimulation of DNA triplet repeat slippage synthesis using p33-labeled (ATT)3 and unlabeled (AAT)5 template assessed as number of base pairs at 200 uM.
Test [4] is described as follows: Binding affinity to ATT-bulge-DNA by surface plasmon resonance based assay.
The nature of test [5]: Stimulation of DNA triplet repeat slippage synthesis using p33-labeled (ATT)3 and unlabeled (AAT)5 template at 100 uM in presence of doxorubicin.
Test [6] in a line: Stimulation of DNA triplet repeat slippage synthesis using p33-labeled (ATT)3 and unlabeled (AAT)5 template assessed as number of base pairs at 50 uM.
A short description of test [7]: Stimulation of DNA triplet repeat slippage synthesis using p33-labeled (ATT)3 and unlabeled (AAT)5 template assessed as number of base pairs at 100 uM.
Test [8] is described as follows: Binding affinity to hairpin DNA by surface plasmon resonance based assay.
Test [9] can be described thus: Stimulation of DNA triplet repeat slippage synthesis using p33-labeled (ATT)3 and unlabeled (AAT)5 template assessed as number of base pairs.

As a reminder, the pKd is −log10 of the Kd, conventionally taken in molar units. A higher pKd goes with a small Kd. In general, pKi refers to the negative decadic logarithm of the Ki, by convention in mol/L. Turning to `OC[C@H]1O[C@@H](OCCN2c3ccccc3Sc3ccccc32)[C@H](O)[C@@H](O)[C@@H]1O`, the Activity in [1] came to 71; in test [3] it was 32; in test [6] it was 18; in test [7], 20. For the same molecule, the values for the pKd in [2] and in [8] were 3.77 and 3.85, respectively. In addition, in test [4], the pKi was 4.38. Further, the outcome in test [5] was inactive.

Consider `c1ccc2c(c1)Nc1ccccc1S2`, for which the outcome in test [9] and in [4] was inactive.

For `N[C@H]1[C@H](O[C@H]2C[C@H]3C(=O)c4cc5ccccc5cc4[C@H]3[C@@]23C(=O)CCc2ccccc23)O[C@H](CO)[C@@H](O)[C@@H]1O`, in [9], the outcome was Active.
